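Method: 48-hour compound exposure of cells in 96-well plates, five concentrations, linear interpolation of endpoints. GI50: concentration for 50% inhibition of growth.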 Activity calls are given as the source filed them. Cut-off read from the data, not from the text of the source: active = GI50 up to about 1.1 µM and inactive = higher.
Tests used:
Assay in all cases: NCI-60 cell line screen, 48 h
[1] = system: HCC 2998
[2] = system: COLO 205
[3] = system: SW-620
[4] = system: SF-295
[5] = system: M19-MEL
[6] = system: TK-10
[7] = system: CAKI-1
[8] = system: SK-MEL-5
[9] = system: HOP-62
[10] = system: NCI-H460
[11] = system: SN12C
[12] = system: OVCAR-3
[13] = system: OVCAR-4
[14] = system: IGROV-1
[15] = system: RPMI-8226
[16] = system: NCI-H522
[17] = system: SNB-19
[18] = system: NCI/ADR-RES
[19] = system: BT-549
[20] = system: MCF7

Measured: GI50

CC(=O)O[C@H]1CCN2C(=O)C=CC(OCc3ccccc3)C12 (some centres undefined)
inactive: [1] > 100 µM | [2] > 100 µM | [3] > 100 µM | [4] > 100 µM | [5] > 100 µM | [6] > 100 µM | [7] > 100 µM | [8] > 100 µM | [9] > 100 µM | [10] > 100 µM | [11] > 100 µM | [12] > 100 µM | [13] > 100 µM | [14] > 100 µM | [15] > 100 µM

O=C(c1ccc2c3c(ccc(C(=O)C(F)(F)F)c13)CC2)C(F)(F)F
inactive: [1] > 100 µM | [16] 29.8 µM | [2] 21.5 µM | [17] 86.7 µM | [3] > 100 µM | [4] 44.6 µM | [5] 35.5 µM | [6] 53 µM | [7] > 100 µM | [9] 72.1 µM | [10] 69.8 µM | [11] 92.9 µM | [12] 69.8 µM | [13] 35.1 µM | [14] 74 µM

COc1ccc(CNc2nc3ccccc3nc2-c2cccs2)cc1OC
inactive: [1] 30.8 µM | [2] 9.98 µM | [17] > 100 µM | [3] 93.3 µM | [4] 42.4 µM | [5] 33.1 µM | [6] 74 µM | [9] > 100 µM | [10] 20.8 µM | [11] 61.5 µM | [12] 51.3 µM | [15] 72.3 µM

Cc1ccccc1NC(=O)C(=O)C(c1cnc2ccc([N+](=O)[O-])cc2n1)[N+](=O)[O-] (centres undefined)
inactive: [1] > 100 µM | [16] 27.4 µM | [2] > 100 µM | [17] > 100 µM | [3] > 100 µM | [4] > 100 µM | [5] 83 µM | [6] > 100 µM | [7] > 100 µM | [8] 87.3 µM | [9] > 100 µM | [10] > 100 µM | [11] > 100 µM | [13] > 100 µM | [14] > 100 µM | [15] 31.7 µM

NC(=O)c1cccc(C2OC(COP(=O)(O)O)C(O)C2O)c1 (centres undefined)
inactive: [1] > 50 µM | [16] > 50 µM | [2] > 50 µM | [17] > 50 µM | [3] 42.9 µM | [4] 39.1 µM | [5] > 50 µM | [6] > 50 µM | [7] > 50 µM | [8] > 50 µM | [9] > 50 µM | [10] > 50 µM | [11] > 50 µM | [12] > 50 µM | [14] > 50 µM | [15] > 50 µM

Oc1ccc(O)c(-n2cccn2)c1
inactive: [1] > 100 µM | [16] 16.6 µM | [2] 23 µM | [17] > 100 µM | [3] 29.3 µM | [4] 95.1 µM | [5] 30 µM | [6] 32.1 µM | [7] 19.1 µM | [8] > 100 µM | [9] > 100 µM | [10] > 100 µM | [11] 94.4 µM | [13] > 100 µM | [14] > 100 µM | [15] 25.6 µM

CCOC(=O)CC1NC(=O)CS1 (centres undefined)
inactive: [1] > 100 µM | [2] 4.39 µM | [17] > 100 µM | [3] 15.9 µM | [4] > 100 µM | [5] > 100 µM | [6] > 100 µM | [7] > 100 µM | [8] > 100 µM | [9] > 100 µM | [10] 60.4 µM | [11] 36.6 µM | [12] > 100 µM | [13] > 100 µM | [14] > 100 µM | [15] 26.8 µM

CC(C)(C)OC(=O)N1N=NC2C1C1CC(OCc3ccccc3)(OCc3ccccc3)C2O1 (centres undefined)
inactive: [1] > 100 µM | [2] > 100 µM | [3] 14.7 µM | [4] 40 µM | [5] 37.5 µM | [7] > 100 µM | [8] 16.8 µM | [9] > 100 µM | [10] > 100 µM | [11] 49.4 µM | [12] 30.3 µM | [13] 32.5 µM | [14] > 100 µM | [15] 14.1 µM

O=C1CSC(c2ccccc2)N1c1ccc(-n2c(-c3ccccc3)nc3ccccc3c2=O)cc1 (centres undefined)
inactive: [1] > 100 µM | [16] 49.7 µM | [2] 54.2 µM | [17] > 69.2 µM | [18] 64.6 µM | [3] > 100 µM | [4] 63.2 µM | [6] > 100 µM | [7] > 100 µM | [8] 47.4 µM | [9] > 100 µM | [10] 46.3 µM | [19] > 80.7 µM | [11] 99.3 µM | [12] 64.1 µM | [20] > 92 µM | [13] 42 µM | [14] 34.8 µM | [15] 42.6 µM

Reference: ChEMBL document CHEMBL1201862, “PubChem BioAssay data set” (2004)
